± gives the expanded uncertainty stated by the source.
Settings: 298.15 K, 101.33 kPa, Liquid; for viscosity: Capillary tube (Ostwald / Ubbelohde) method

mass density [kg/m3]	viscosity [mPa·s]	SMILES
797.77 ± 0.62	3.353 ± 0.027	CC(C)CO [2-methyl-1-propanol]
780.78 ± 0.65	4.384 ± 0.038	CC(C)(C)O [2-methylpropan-2-ol]
655.07 ± 0.98	0.2949 ± 0.0048	CCCCCC [hexane]

SMILES	mass density [kg/m3]	viscosity [mPa·s]
CCCCCl [1-chlorobutane]	880.69 ± 0.61	0.4235 ± 0.0054

Source: the NIST ThermoML archive (doi:10.1021/je800048f)
